From ChEMBL document CHEMBL5608179, “Triptonide induces apoptosis and inhibits the proliferation of ovarian cancer cells by activating the p38/p53 pathway and autophagy” (Bioorg Med Chem, 2024)

Key:
[1] = tested on: A2780; assay: Cytotoxicity against human A2780 cells assessed as cell viability measured after 48 hrs by MTT assay; format: functional, cell-based; settings: A2780, 48 h
[2] = tested on: A2780; assay: Induction of apoptosis in human A2780 cells assessed as late apoptotic cells at 800 nM measured after 24 hrs by Annexin V-FITC/PI flow cytometry (reference value: 1.58%); format: functional
[3] = tested on: A2780; assay: Induction of apoptosis in human A2780 cells assessed as necrotic cells at 800 nM measured after 24 hrs by Annexin V-FITC/PI flow cytometry (reference value: 0.18%); format: functional
[4] = tested on: A2780; assay: Induction of apoptosis in human A2780 cells assessed as viable cells at 800 nM measured after 24 hrs by Annexin V-FITC/PI flow cytometry (reference value: 96.1%); format: functional; settings: read-out: Activity
[5] = tested on: A2780; assay: Induction of apoptosis in human A2780 cells assessed as early apoptotic cells at 800 nM measured after 24 hrs by Annexin V-FITC/PI flow cytometry (reference value: 2.17%); format: functional
[6] = tested on: SK-OV-3; assay: Cytotoxicity against human SK-OV-3 cells assessed as cell viability measured after 48 hrs by MTT assay; format: functional, cell-based; settings: SK-OV-3, 48 h
[7] = tested on: Huh-7; assay: Cytotoxicity against human Huh-7 cells assessed as cell viability measured after 48 hrs by MTT assay; format: functional, cell-based; settings: Huh-7, 48 h
[8] = tested on: A2780; assay: Induction of apoptosis in human A2780 cells assessed as viable cells at 20 uM measured after 24 to 72 hrs by Annexin V-FITC/PI flow cytometry (reference value: 94.2%); format: functional; settings: time 24-72 hrs, read-out: Activity
[9] = tested on: A2780; assay: Induction of apoptosis in human A2780 cells assessed as early apoptotic cells at […] measured after 24 to 72 hrs by Annexin V-FITC/PI flow cytometry (reference value: 2.82%); format: functional; settings: time 24-72 hrs
[10] = tested on: A2780; assay: Induction of apoptosis in human A2780 cells assessed as late apoptotic cells at […] measured after 24 to 72 hrs by Annexin V-FITC/PI flow cytometry (reference value: 2.54%); format: functional; settings: time 24-72 hrs
[11] = tested on: A2780; assay: Induction of apoptosis in human A2780 cells assessed as necrotic cells at 20 uM measured after 24 to 72 hrs by Annexin V-FITC/PI flow cytometry (reference value: 0.39%); format: functional; settings: time 24-72 hrs
[12] = tested on: A2780; assay: Induction of cell cycle arrest in human A2780 cells assessed as accumulation of cells at G1 phase at 20 uM measured after 24 hrs by PI staining based Cell Cycle Analysis Kit (KeyGEN) (reference value: 54.2%); format: functional
[13] = tested on: A2780; assay: Induction of cell cycle arrest in human A2780 cells assessed as accumulation of cells at S phase at 20 uM measured after 24 hrs by PI staining based Cell Cycle Analysis Kit (KeyGEN) (reference value: 15%); format: functional
[14] = tested on: A2780; assay: Induction of cell cycle arrest in human A2780 cells assessed as accumulation of cells at G2 phase at 20 uM measured after 24 hrs by PI staining based Cell Cycle Analysis Kit (KeyGEN) (reference value: 24.5%); format: functional

C[C@@]1(C(=O)O)CC[C@]2(C)CC[C@]3(C)C4=CC(=O)c5c(cc(O)c(O)c5C=O)[C@]4(C)CC[C@@]3(C)[C@@H]2C1
IC50 [1]: 10.1 µM

C[C@]12CCC[C@@]3(COC1=O)[C@@H]1CC[C@@H]4C[C@@]1(CC[C@@H]32)C[C@@]4(C)O
IC50 [1]: > 60 µM

C[C@@H]1[C@@]23CC[C@H]4[C@@](C)(CC[C@@]5(C)[C@@H]6C[C@](C)(C(=O)O)CC[C@]6(C)CC[C@]45C)[C@@H]2C[C@@H](O)[C@@]1(O)OC3
IC50 [1]: > 60 µM

CC(=O)OC[C@]12[C@H](OC(C)=O)[C@H](OC(C)=O)[C@@H]3[C@@H](OC(C)=O)[C@@]14O[C@@]3(C)COC(=O)c1cccnc1CC[C@H](C)C(=O)O[C@@H]([C@H](OC(=O)c1ccccc1)[C@@H]2OC(C)=O)[C@]4(C)O
IC50 [1]: > 60 µM

CC(=O)OC[C@]12[C@H](OC(C)=O)[C@H](OC(C)=O)[C@@H]3[C@@H](OC(C)=O)[C@@]14OC3(C)COC(=O)c1cccnc1CCC(C)C(=O)O[C@@H]([C@H](OC(=O)c1ccoc1)[C@@H]2OC(C)=O)C4(C)O (stereo not given in full)
IC50 [1]: > 60 µM

CC1(C)[C@@H](O)CC[C@]2(C)[C@H]3CC=C4[C@@H]5C[C@@]6(C)C[C@H](OC6=O)[C@]5(C)CC[C@@]4(C)[C@]3(C)CC[C@@H]12 [3-EPIABRUSLACTONE A]
IC50 [1]: > 60 µM

CO/C1=C\C(C)=C\[C@@H](C)[C@@H](O)[C@@H](C)C/C(C)=C/C=C/[C@H](OC)[C@@H]([C@@H](C)[C@@H](O)[C@H](C)[C@@]2(O)C[C@@H](O)[C@H](C)[C@@H](C(C)C)O2)OC1=O [BAFILOMYCIN A1]
Activity [2]: 2.27%
Activity [3]: 0.43%
viability at 0.8 µM [4]: 94%
Activity [5]: 3.33%

CC1=C(O)C(=O)C=C2C1=CC=C1[C@@]2(C)CC[C@@]2(C)[C@@H]3C[C@](C)(C(=O)O)CC[C@]3(C)CC[C@]12C [CELASTROL]
IC50 [1]: 1.57 µM

COc1cccc2c1C(=O)c1c(O)c3c(c(O)c1C2=O)C[C@@](O)(C(=O)CO)C[C@@H]3O[C@H]1C[C@H](N)[C@@H](O)[C@H](C)O1 [EPIRUBICIN]
IC50 [1]: 1.28 µM
IC50 [6]: 0.498 µM
IC50 [7]: 0.495 µM

O=c1[nH]cc(F)c(=O)[nH]1 [FLUOROURACIL]
IC50 [1]: 3.93 µM
IC50 [6]: 10.8 µM
IC50 [7]: 28.5 µM

C[S+]([O-])c1ccc(-c2nc(-c3ccc(F)cc3)c(-c3ccncc3)[nH]2)cc1 (stereo not given) [SB-203580]
viability at 20 µM [8]: 92%
Activity [9]: 3.32%
Activity [10]: 4.27%
Activity [11]: 0.41%
Activity [12]: 53.8%
Activity [13]: 10%
Activity [14]: 31.5%

CC(C)c1ccc2c(c1O)CC[C@H]1C3=C(CC[C@]21C)C(=O)OC3 [TRIPTOPHENOLIDE]
IC50 [1]: > 60 µM
